According to patent US20260285850A1, “SUBSTITUTED OXAZOLIDINONES AND IMIDAZOLINONES AS HERBICIDES” (FMC CORPORATION, priority 2023, published 2026):

How the values were obtained:
Type in all cases: in vivo
[1] = system: barnyardgrass (Echinochloa crus-galli); assay: Test A preemergence soil spray, visual injury rating 0-100; details: 10 days, 0 = no effect, 100 = complete control
Method in brief: (§1)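 Seeds sown in loam-sand blend got a preemergence directed soil spray, or emerged plants (2-10 cm, one- to two-leaf) got a postemergence spray, of compound in non-phytotoxic solvent with surfactant. After 10 days in greenhouse, injury rated visually versus untreated controls on a 0 (no effect) to 100 (complete control) scale.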

[2] = system: blackgrass (Alopecurus myosuroides); assay: as above; details: 10 days, 0 = no effect, 100 = complete control
Method in brief: as §1

corn (Zea mays) [3] = assay: as above; details: 10 days, 0 = no effect, 100 = complete control
Method in brief: as §1

[4] = system: green foxtail (Setaria viridis); assay: as above; details: 10 days, 0 = no effect, 100 = complete control
Method in brief: as §1

kochia (Bassia scoparia) [5] = assay: as above; details: 10 days, 0 = no effect, 100 = complete control
Method in brief: as §1

[6] = system: oat, wild (wild oat, Avena fatua); assay: as above; details: 10 days, 0 = no effect, 100 = complete control
Method in brief: as §1

[7] = system: palmer (palmer amaranth, palmer pigweed, Amaranthus palmeri); assay: as above; details: 10 days, 0 = no effect, 100 = complete control
Method in brief: as §1

[8] = system: ragweed (common ragweed, Ambrosia artemisiifolia); assay: as above; details: 10 days, 0 = no effect, 100 = complete control
Method in brief: as §1

[9] = system: ryegrass, Italian (italian ryegrass, Lolium multiflorum); assay: as above; details: 10 days, 0 = no effect, 100 = complete control
Method in brief: as §1

soybean (Glycine max) [10] = assay: as above; details: 10 days, 0 = no effect, 100 = complete control
Method in brief: as §1

[11] = system: wheat (Triticum aestivum); assay: as above; details: 10 days, 0 = no effect, 100 = complete control
Method in brief: as §1

[12] = system: barnyardgrass (Echinochloa crus-galli); assay: Test A postemergence application, visual injury rating 0-100; details: 10 days
Method in brief: as §1

[13] = system: blackgrass (Alopecurus myosuroides); assay: as above; details: 10 days
Method in brief: as §1

corn (Zea mays) [14] = assay: as above; details: 10 days
Method in brief: as §1

[15] = system: galium (catchweed bedstraw, Galium aparine); assay: as above; details: 10 days
Method in brief: as §1

[16] = system: green foxtail (Setaria viridis); assay: as above; details: 10 days
Method in brief: as §1

[17] = system: horseweed (Erigeron canadensis); assay: as above; details: 10 days
Method in brief: as §1

kochia (Bassia scoparia) [18] = assay: as above; details: 10 days
Method in brief: as §1

[19] = system: oat, wild (wild oat, Avena fatua); assay: as above; details: 10 days
Method in brief: as §1

[20] = system: palmer (palmer amaranth, palmer pigweed, Amaranthus palmeri); assay: as above; details: 10 days
Method in brief: as §1

[21] = system: ragweed (common ragweed, Ambrosia artemisiifolia); assay: as above; details: 10 days
Method in brief: as §1

[22] = system: ryegrass, Italian (italian ryegrass, Lolium multiflorum); assay: as above; details: 10 days
Method in brief: as §1

soybean (Glycine max) [23] = assay: as above; details: 10 days
Method in brief: as §1

[24] = system: wheat (Triticum aestivum); assay: as above; details: 10 days
Method in brief: as §1

[25] = system: barnyardgrass (Echinochloa crusgalli); assay: Test B flooded paddy test, visual plant response rating 0-100; details: 250 g ai/ha, Flood, applied to paddy water, evaluated after 13 days
Method in brief: (§2)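 In this flooded assay, 2-leaf seedlings received compound through the water layer, kept at 3 cm over the soil. Plants were held 13 days in a greenhouse and then visually compared with control pots.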

[26] = system: ducksalad (Heteranthera limosa); assay: as above; details: 250 g ai/ha, Flood, applied to paddy water, evaluated after 13 days
Method in brief: as §2

rice (Oryza sativa) = assay: as above; details: 250 g ai/ha, Flood, applied to paddy water, evaluated after 13 days
Method in brief: as §2

[27] = system: sedge, umbrella (small-flower umbrella sedge, Cyperus difformis); assay: as above; details: 250 g ai/ha, Flood, applied to paddy water, evaluated after 13 days
Method in brief: as §2

[28] = 31 g ai/ha, postemergence, 0 = no effect, 100 = complete control
[29] = Postemergence, 125 g ai/ha, 0 is no effect, 100 is complete control

SMILES: CC1(C(=O)NC2C=CC(C(=O)OCC(F)(F)F)C2)CN(c2cc(F)cc(F)c2)C(=O)O1 (stereo not shown) [Compound 55]
- Barnyardgrass plant response rating (0-100) ([1]; 31 g ai/ha): 20
- Barnyardgrass plant response rating (0 to 100 scale) ([1]; 125 g ai/ha): 100
- Blackgrass plant response rating (0-100) ([2]; 31 g ai/ha): 20
- Blackgrass plant response rating (0 to 100 scale) ([2]; 125 g ai/ha): 90
- Corn plant response rating (0-100) (corn (Zea mays) [3]; 31 g ai/ha): 20
- Corn plant response rating (0 to 100 scale) (corn (Zea mays) [3]; 125 g ai/ha): 40
- Foxtail, Green plant response rating (0-100) ([4]; 31 g ai/ha): 0
- Foxtail, Green plant response rating (0 to 100 scale) ([4]; 125 g ai/ha): 90
- Kochia plant response rating (0-100) (kochia (Bassia scoparia) [5]; 31 g ai/ha): 0
- Kochia plant response rating (0 to 100 scale) (kochia (Bassia scoparia) [5]; 125 g ai/ha): 90
- Oat, Wild plant response rating (0-100) ([6]; 31 g ai/ha): 60
- Oat, Wild plant response rating (0 to 100 scale) ([6]; 125 g ai/ha): 90
- Amaranth, Palmer plant response rating (0-100) ([7]; 31 g ai/ha): 20
- Amaranth, Palmer plant response rating (0 to 100 scale) ([7]; 125 g ai/ha): 70
- Ragweed plant response rating (0-100) ([8]; 31 g ai/ha): 0
- Ragweed plant response rating (0 to 100 scale) ([8]; 125 g ai/ha): 0
- Ryegrass, Italian plant response rating (0-100) ([9]; 31 g ai/ha): 80
- Ryegrass, Italian plant response rating (0 to 100 scale) ([9]; 125 g ai/ha): 90
- Soybean plant response rating (0-100) (soybean (Glycine max) [10]; 31 g ai/ha): 40
- Soybean plant response rating (0 to 100 scale) (soybean (Glycine max) [10]; 125 g ai/ha): 80
- Wheat plant response rating (0-100) ([11]; 31 g ai/ha): 90
- Wheat plant response rating (0 to 100 scale) ([11]; 125 g ai/ha): 100
- Barnyardgrass plant response rating (0-100) [12, 28]: 90
- Barnyardgrass plant response rating (0 to 100 scale) [12, 29]: 100
- Blackgrass plant response rating (0-100) [13, 28]: 50
- Blackgrass plant response rating (0 to 100 scale) [13, 29]: 100
- Corn plant response rating (0-100) (corn (Zea mays) [14]; [28]): 100
- Corn plant response rating (0 to 100 scale) (corn (Zea mays) [14]; [29]): 100
- Galium plant response rating (0-100) [15, 28]: 80
- Galium plant response rating (0 to 100 scale) [15, 29]: 80
- Foxtail, Green plant response rating (0-100) [16, 28]: 20
- Foxtail, Green plant response rating (0 to 100 scale) [16, 29]: 80
- Horseweed plant response rating (0-100) [17, 28]: 70
- Horseweed plant response rating (0 to 100 scale) [17, 29]: 80
- Kochia plant response rating (0-100) (kochia (Bassia scoparia) [18]; [28]): 80
- Kochia plant response rating (0 to 100 scale) (kochia (Bassia scoparia) [18]; [29]): 80
- Oat, Wild plant response rating (0-100) [19, 28]: 90
- Oat, Wild plant response rating (0 to 100 scale) [19, 29]: 90
- Amaranth, Palmer plant response rating (0-100) [20, 28]: 80
- Amaranth, Palmer / Pigweed, Palmer plant response rating (0 to 100 scale) [20, 29]: 90
- Ragweed plant response rating (0-100) [21, 28]: 50
- Ragweed plant response rating (0 to 100 scale) [21, 29]: 60
- Ryegrass, Italian plant response rating (0-100) [22, 28]: 90
- Ryegrass, Italian plant response rating (0 to 100 scale) [22, 29]: 90
- Soybean plant response rating (0-100) (soybean (Glycine max) [23]; [28]): 70
- Soybean plant response rating (0 to 100 scale) (soybean (Glycine max) [23]; [29]): 70
- Wheat plant response rating (0-100) [24, 28]: 80
- Wheat plant response rating (0 to 100 scale) [24, 29]: 90
- Plant response rating, Barnyardgrass (0 to 100 scale, 0 is no effect and 100 is complete control) [25]: 90
- Plant response rating, Ducksalad (0 to 100 scale, 0 is no effect and 100 is complete control) [26]: 85
- Plant response rating, Rice (0 to 100 scale, 0 is no effect and 100 is complete control) (rice (Oryza sativa)): 15
- Plant response rating, Sedge, Umbrella (0 to 100 scale, 0 is no effect and 100 is complete control) [27]: 45
